Data on one compound can be found in paper PMC6683142, “The lipid-dependent structure and function of LacY can be recapitulated and analyzed in phospholipid-containing detergent micelles” (Scientific Reports, 2019).

The target in this assay is T1, lactose permease (LacY) (Escherichia coli, UniProt P02920, C154G).
T1 construct: LacY with all six native Trp residues and a C-terminal His6-Tag, DDM-solubilized, purified from PE-containing cells (correct topology)
T1 sequence (P02920 1-417 C154G): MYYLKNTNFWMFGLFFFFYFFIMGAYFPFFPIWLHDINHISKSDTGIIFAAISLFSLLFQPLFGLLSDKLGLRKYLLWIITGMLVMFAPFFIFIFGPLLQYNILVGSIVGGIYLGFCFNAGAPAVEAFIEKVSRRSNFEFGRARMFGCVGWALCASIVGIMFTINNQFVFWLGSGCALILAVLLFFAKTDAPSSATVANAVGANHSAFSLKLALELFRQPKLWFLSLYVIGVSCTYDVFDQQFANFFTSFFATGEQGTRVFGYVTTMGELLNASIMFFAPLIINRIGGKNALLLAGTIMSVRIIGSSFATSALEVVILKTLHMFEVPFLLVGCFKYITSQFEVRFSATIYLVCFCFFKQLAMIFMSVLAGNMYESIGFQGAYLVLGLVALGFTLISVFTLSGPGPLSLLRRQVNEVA
Kind of assay: Trp → α-NPG FRET (quenching of W151) on purified protein in DDM micelles. In kind it is binding.

A word on the Kd: it is the constant that tells how readily two partners part at equilibrium. Low values mean tighter binding, high ones weaker binding. As for `O=[N+]([O-])c1ccc(O[C@H]2O[C@H](CO)[C@H](O)[C@H](O)[C@H]2O)cc1` [α-NPG], the Kd was 5.9 µM.
